Results on nine compounds are retold here after paper doi:10.1101/2021.07.02.450968v1 (biorxiv, 2021).

SMILES strings stand for the structures.

The target of test [1] is T1, FABP2 (intestine, I-FABP) (Homo sapiens, UniProt P12104).
T1 sequence (P12104 2-132): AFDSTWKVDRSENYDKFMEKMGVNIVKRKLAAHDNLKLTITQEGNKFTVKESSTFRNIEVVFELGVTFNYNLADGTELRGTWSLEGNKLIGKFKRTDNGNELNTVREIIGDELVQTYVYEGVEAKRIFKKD
In words: fluorescence polarisation competition vs BODIPY C4,C9. The format is binding.

Test [2] deals with T2, FABP3 (heart, H-FABP) (Homo sapiens, UniProt P05413). The test is described as above. The format is binding.
T2 sequence (P05413 whole entry): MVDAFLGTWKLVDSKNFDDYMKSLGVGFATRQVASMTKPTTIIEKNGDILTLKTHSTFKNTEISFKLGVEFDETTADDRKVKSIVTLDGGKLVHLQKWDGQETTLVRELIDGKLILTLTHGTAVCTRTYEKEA
For test [3], the target named is T3, FABP4 (adipocyte, A-FABP) (Homo sapiens, UniProt P15090). The test is described as above. In kind it is binding.
T3 sequence (P15090 whole entry): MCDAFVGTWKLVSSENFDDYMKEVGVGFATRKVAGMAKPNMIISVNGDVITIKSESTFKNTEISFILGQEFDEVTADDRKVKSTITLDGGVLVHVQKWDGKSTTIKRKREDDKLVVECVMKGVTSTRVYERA
In test [4] the target is T4, FABP1 (liver, L-FABP) (Homo sapiens, UniProt P07148).
T4 sequence (P07148 1-127): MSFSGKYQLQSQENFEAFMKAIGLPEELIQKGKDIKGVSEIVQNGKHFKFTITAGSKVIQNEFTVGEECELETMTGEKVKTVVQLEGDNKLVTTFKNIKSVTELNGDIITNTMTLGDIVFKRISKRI
Described as above. In kind it is binding.

Test [5] has as its target T4, FABP1 (liver, L-FABP). In words: fluorescence polarisation saturation binding.
Test [6] deals with T5, FABP5 (brain, B-FABP or epidermal, E-FABP) (Homo sapiens, UniProt Q01469). In words: fluorescence polarisation saturation binding.
T5 sequence (Q01469 2-135): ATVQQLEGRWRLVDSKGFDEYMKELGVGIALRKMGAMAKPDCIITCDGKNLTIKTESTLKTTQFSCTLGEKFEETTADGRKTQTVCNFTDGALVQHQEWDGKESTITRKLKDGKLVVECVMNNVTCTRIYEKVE
In test [7] the target is T2, FABP3 (heart, H-FABP). In words: fluorescence polarisation saturation binding. In general terms: In fluorescence polarisation assays a small probe gives low polarisation when free and higher when bound to something large.
The target of test [8] is T3, FABP4 (adipocyte, A-FABP). Briefly: fluorescence polarisation saturation binding.
Test [9] has as its target T1, FABP2 (intestine, I-FABP). In words: fluorescence polarisation saturation binding.
Test [10] addresses T5, FABP5 (brain, B-FABP or epidermal, E-FABP). In words: fluorescence polarisation competition vs BODIPY C4,C9. In kind it is binding.
Another test deals with T6, GR (α sub-type) (Homo sapiens, UniProt P04150).
T6 sequence (P04150 1-777): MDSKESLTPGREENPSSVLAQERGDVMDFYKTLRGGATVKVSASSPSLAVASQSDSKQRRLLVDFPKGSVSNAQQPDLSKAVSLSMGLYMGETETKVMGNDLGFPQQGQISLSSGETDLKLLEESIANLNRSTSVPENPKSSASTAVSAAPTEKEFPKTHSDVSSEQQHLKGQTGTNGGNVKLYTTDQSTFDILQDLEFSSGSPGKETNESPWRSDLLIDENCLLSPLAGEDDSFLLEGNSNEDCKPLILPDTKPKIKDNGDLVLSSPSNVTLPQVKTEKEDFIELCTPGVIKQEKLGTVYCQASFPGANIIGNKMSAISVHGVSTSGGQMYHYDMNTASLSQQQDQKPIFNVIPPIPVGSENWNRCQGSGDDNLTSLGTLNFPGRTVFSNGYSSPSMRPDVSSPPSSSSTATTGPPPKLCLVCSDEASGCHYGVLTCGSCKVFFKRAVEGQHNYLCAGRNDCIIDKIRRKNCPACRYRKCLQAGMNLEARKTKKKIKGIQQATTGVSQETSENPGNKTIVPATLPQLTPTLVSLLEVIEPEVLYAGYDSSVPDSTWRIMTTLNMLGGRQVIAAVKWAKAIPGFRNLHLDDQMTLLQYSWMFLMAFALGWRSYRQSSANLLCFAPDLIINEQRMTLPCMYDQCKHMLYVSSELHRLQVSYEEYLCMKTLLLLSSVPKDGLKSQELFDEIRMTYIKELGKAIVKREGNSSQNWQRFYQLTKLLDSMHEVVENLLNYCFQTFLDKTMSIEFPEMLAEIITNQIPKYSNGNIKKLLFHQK
In words: GRE-SEAP reporter gene assay, COS-7. Conditions: 24 h agonist treatment; nominal EC80 concentration from reporter curves. In kind it is cell-based.

What is called Ki is a dissociation constant, usually derived from enzyme kinetics or from competition with a known ligand. Higher therefore signals lower affinity. Consider `C[C@H]1C[C@@H]2[C@H]([C@@H](O)C[C@@]3(C)[C@H]2CC[C@]3(O)C(=O)CO)[C@@]2(C)C=CC(=O)C=C12` [Methylprednisolone], for which the Ki in test [1] was 3.39 µM; at FABP3 (heart, H-FABP) [2], 117 µM; in [3], 2000 µM; on FABP1 (liver, L-FABP) [4], 79.4 µM.
As a reminder, the Kd is the concentration at which binding is half-saturated. A high value points to a looser complex. In the case of `CCCCc1ccc2n1[B-](F)(F)[N+]1=C(CCCCCCCCC(=O)O)C=CC1=C2` [BODIPY 500/510 C4, C9], the Kd at FABP1 (liver, L-FABP) [5] is 0.09 µM; in test [6] it was 0.16 µM; on FABP3 (heart, H-FABP) [7] it was 0.02 µM; in [8], 0.42 µM; in [9], 4.1 µM.
Take `C[C@]12CCC(=O)C=C1CC[C@@H]1[C@@H]2C(=O)C[C@@]2(C)[C@H]1CC[C@]2(O)C(=O)CO` [Cortisone]: the Ki in test [1] is 16.6 µM; on FABP3 (heart, H-FABP) [2], 107 µM; in test [3], 977 µM; in [10], 129 µM; on FABP1 (liver, L-FABP) [4], 302 µM.
`C[C@H]1C[C@H]2[C@@H]3CCC4=CC(=O)C=C[C@]4(C)[C@@]3(F)[C@@H](O)C[C@]2(C)[C@@]1(O)C(=O)CO` [β-methasone]: the inhibition constant (Ki) in test [1] was 72.4 µM; at FABP1 (liver, L-FABP) [4], 91.2 µM. Also, the EC80 on GR (α sub-type) was ~ 10 μM.
In the case of `C[C@@H]1C[C@H]2[C@@H]3CCC4=CC(=O)C=C[C@]4(C)[C@@]3(F)[C@@H](O)C[C@]2(C)[C@@]1(O)C(=O)CO` [Dexamethasone], the inhibition constant Ki is 5.62 µM on FABP3 (heart, H-FABP) [2]; 74.1 µM in test [3]; 27.5 µM on FABP1 (liver, L-FABP) [4]. At GR (α sub-type), the EC80 was ~ 10 μM.
With `CCCC1O[C@@H]2C[C@H]3[C@@H]4CCC5=CC(=O)C=C[C@]5(C)[C@H]4[C@@H](O)C[C@]3(C)[C@]2(C(=O)CO)O1` (stereo partly drawn) [Budesonide], the inhibitory constant (Ki) at FABP3 (heart, H-FABP) [2] is 0.0575 µM; in [10], 19.1 µM; at FABP1 (liver, L-FABP) [4], 85.1 µM. The EC80 on GR (α sub-type) is ~ 10 μM.
For the compound `C[C@]12C=CC(=O)C=C1CC[C@@H]1[C@@H]2C(=O)C[C@@]2(C)[C@H]1CC[C@]2(O)C(=O)CO` [Prednisone], the inhibitory constant (Ki) at FABP3 (heart, H-FABP) [2] was 7.59 µM; in test [3], 35.5 µM; in [10], 9.33 µM; on FABP1 (liver, L-FABP) [4] it was 288 µM.
On to `C[C@]12C=CC(=O)C=C1CC[C@@H]1[C@@H]2[C@@H](O)C[C@@]2(C)[C@H]1CC[C@]2(O)C(=O)CO` [Prednisolone], for which the inhibitory constant (Ki) in [1] was 11 µM; at FABP3 (heart, H-FABP) [2] it was 70.8 µM; in test [3], 1150 µM; at FABP1 (liver, L-FABP) [4], 47.9 µM. In addition, the EC80 on GR (α sub-type) was ~ 100 μM.
On to `C[C@]12CCC(=O)C=C1CC[C@@H]1[C@@H]2[C@@H](O)C[C@@]2(C)[C@H]1CC[C@]2(O)C(=O)CO` [Hydrocortisone], for which the inhibition constant Ki was 7.76 µM on FABP3 (heart, H-FABP) [2]; 120 µM in [3]; 21.9 µM in test [10]; 38.9 µM on FABP1 (liver, L-FABP) [4]. The EC80 on GR (α sub-type) is on record as ~ 1 mM.
